Reference: publication PMC7822874, “Chemoprotective antimalarials identified through quantitative high-throughput screening of Plasmodium blood and liver stage parasites” (Scientific Reports, 2021)
Values joined by “and” are separate entries in the source; they are usually repeats but may differ in a detail not shown here. Identical values can stand only once. Like-named read-outs stand apart in the source and are kept apart here.

Columns and labels:
[1] = target: Firefly luciferase (Fluc, EC 1.13.12.7) (Photinus pyralis, UniProt P08659); assay: biochemical; set-up: single determination (the paper says generally: 'qHTS assays were performed in a single replicate with a 7- to 11-point dose response format'; it is not stated for this counterscreen itself)
[2] = system: Plasmodium falciparum Dd2 asexual blood stage parasites; assay: microbe, parasite or virus in culture; set-up: species or system Plasmodium falciparum Dd2 in human erythrocytes; single determination (one 11-point concentration-response curve); settings: Plasmodium falciparum, DD2, Erythrocyte, 72 h; read-out: AC50
in vitro = settings: human, HepG2-A16-CD81EGFP cells, uninfected
[3] = system: T1, Plasmodium falciparum Dd2-attB (parental line), asexual blood stages; assay: microbe, parasite or virus in culture; set-up: species or system P. falciparum Dd2-attB in human erythrocytes; SYBR Green-I proliferation assay, Dd2-attB parental line, asexual blood stages; settings: Plasmodium falciparum, DD2, Erythrocyte, 72 h, read-out: Calculated / Average Log AC50 (M), mean of replicates, 72 h (converted)
T1 construct: Dd2-attB, the isogenic parental line

[4] = system: P. falciparum Dd2 Cytb F123L; assay: SYBR Green ABS proliferation assay, NCGC00473217 selected clone G08; type: cell-based, Plasmodium falciparum; settings: Plasmodium falciparum
Procedure, shortened: (§1)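 72 h SYBR Green-I read; % response = relative growth vs controls. Clones from resistance selection, cloned by limiting dilution; 37 °C, 5% CO2/5% O2/90% N2.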

[5] = system: P. falciparum Dd2 Cytb V259L; assay: SYBR Green ABS proliferation assay, NCGC00473217 selected clone F06; type: cell-based, Plasmodium falciparum; settings: Plasmodium falciparum
Procedure, shortened: as §1

[6] = system: P. falciparum Dd2 Cytb G131S; assay: SYBR Green ABS proliferation assay, NCGC00374598 selected clone C11; type: cell-based, Plasmodium falciparum; settings: Plasmodium falciparum, DD2, […]; averaged from three independent replicates; top concentration 29 µM; read-out: Average AC50 (Log[M]), NCGC00374598 clone C11 (Cytb G131S) (converted)
Procedure, shortened: as §1

[7] = system: P. falciparum Dd2 (clone B2) asexual blood stage parasites; assay: P. falciparum Dd2 asexual blood stage SYBR Green-I 72 h proliferation assay (qHTS); type: cell-based, Plasmodium falciparum; settings: Plasmodium falciparum, DD2, Dd2 parental; Hill fit, averaged from three independent replicates; top concentration 29 µM; read-out: Average AC50 (Log[M]), Dd2 (converted)
[8] = system: T2, Plasmodium falciparum Dd2-attB-ScDHODH (transgenic line expressing yeast DHODH), asexual blood stages; assay: organism not typed; set-up: replicate k of 3 (each line is one of three independent assays; the three lines of one compound and parasite line follow each other); settings: 72 h, n = 1
T2 construct: Dd2-attB-ScDHODH, the transgenic line that expresses yeast DHODH
Procedure, shortened: (§2)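 The transgenic line overexpresses fumarate-dependent yeast DHODH, bypassing parasite mETC and ubiquinone-dependent parasite DHODH. A subset of compounds was run in three independent assays on both lines, and line differences were tested by two-sided Student's t-test.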

[9] = system: P. falciparum Dd2 Cytb A122D; assay: SYBR Green ABS proliferation assay, NCGC00473217 selected clone F12; type: cell-based, Plasmodium falciparum; settings: Plasmodium falciparum, DD2, […]; averaged from three independent replicates; top concentration 29 µM; read-out: Average AC50 (Log[M]), NCGC00473217 clone F12 (Cytb A122D) (converted)
Procedure, shortened: as §1

[10] = system: T1, Plasmodium falciparum Dd2-attB (parental line), asexual blood stages; assay: microbe, parasite or virus in culture; set-up: replicate k of 3 (each line is one of three independent assays; the three lines of one compound and parasite line follow each other); settings: n = 1
Procedure, shortened: as §2

Chain of Firefly luciferase (Fluc, EC 1.13.12.7) (P08659 whole entry): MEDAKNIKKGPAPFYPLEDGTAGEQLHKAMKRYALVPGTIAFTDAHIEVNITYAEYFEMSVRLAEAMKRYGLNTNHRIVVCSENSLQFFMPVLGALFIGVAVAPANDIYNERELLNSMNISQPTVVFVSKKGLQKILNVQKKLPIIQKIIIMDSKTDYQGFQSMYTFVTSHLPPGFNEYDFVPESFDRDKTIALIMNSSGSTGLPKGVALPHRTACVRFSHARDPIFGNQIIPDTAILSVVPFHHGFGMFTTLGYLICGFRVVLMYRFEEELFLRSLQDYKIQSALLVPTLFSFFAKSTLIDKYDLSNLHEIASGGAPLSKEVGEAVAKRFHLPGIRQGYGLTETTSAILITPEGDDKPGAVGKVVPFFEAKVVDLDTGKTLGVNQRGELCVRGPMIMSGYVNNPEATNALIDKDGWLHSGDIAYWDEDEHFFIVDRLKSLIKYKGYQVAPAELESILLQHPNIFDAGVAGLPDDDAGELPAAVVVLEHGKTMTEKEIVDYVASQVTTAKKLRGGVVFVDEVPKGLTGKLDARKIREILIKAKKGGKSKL

With `Cc1ccc2nc(N3C(=O)CNC3=S)sc2c1` [MLS000768544-01] the AC50 [1] was 10.8 µM.
In the case of `c1ccc2sc(Sc3ncnc4sccc34)nc2c1` [MLS000334432-01], the AC50 [1] is reported as 8.57 µM and the AC50 [2] is reported as 0.944 µM.
In the case of `Cc1ccc(C(=O)NCCn2c(C)cc3ccccc32)cc1C` [NCGC00107199-01], the AC50 [1] is reported as 4.3 µM.
For `CCOC(=O)Cc1csc(NC(=S)NC(=O)c2ccc(C)cc2)n1` [MLS000574610-01], the AC50 [1] was 9.62 µM.
With `O=C(NCCC1=CCCCC1)C1CCN(C(=O)c2ncn3c2COC(c2ccccc2)C3)CC1` (stereo not shown) [NCGC00449771-01] the AC50 [1] was 21.5 µM.
`COC(=O)c1nn(-c2ccc3c(c2)CCN3C(C)=O)cc1O` [MLS000565173-01] showed an AC50 [1] of 10.8 µM.
With `CCOc1ccc(NC(=O)c2ccc3c(c2)N(C)C2CCCN2C3=O)cc1` (stereo not shown) [NCGC00452128-01] the AC50 [1] was 21.5 µM.
`N#CC(=C1CCCC1)c1nc(-c2ccccc2O)cs1` [MLS000034824-01] showed an AC50 [1] of 19.2 µM and an AC50 [2] of 9.44 µM.
Work on `COc1ccc(NC(=O)c2cccc3c2CCN3C(=O)Nc2ccc(F)cc2)c(C)c1` [NCGC00430188-01] yielded an AC50 [1] of 7.64 µM.
`Cc1ccc(C(=O)Nc2sc3c(c2C(=O)O)CCCCC3)o1` [MLS000060651-01] gave an AC50 [1] of 10.8 µM.
For `Cc1ccc(-c2nc(C)c(C(=O)O)s2)cc1` [MLS000735996-01], the AC50 [1] was 13.6 µM.
`Cc1ccc2[nH]c(-c3sc4nc(C)ccc4c3N)nc2c1` [MLS000547128-01] showed an AC50 [1] of 12.1 µM.
With `O=C(NC1CCCCC1)c1[nH]nc2c1CCCCC2` [MLS002178094-01] the AC50 [1] was 4.82 µM.
Work on `Cc1cn2c(=O)cc(COC(=O)c3cccc(NC(=O)COc4ccccc4Cl)c3)nc2s1` [NCGC00130619-01] yielded an AC50 [1] of 0.0341 µM.
For `N=c1n(N)c2ccccc2n1CC(=O)c1ccc(Br)cc1` [MLS001183984-01], the AC50 [1] was 12.1 µM and the viability at 66 h (in vitro) was 103%.
For `Cc1ccc(-c2cc(O)c3cc(C)ccc3n2)cc1` [MLS000517822-01], the AC50 [1] was 12.1 µM and the AC50 [2] was 10.6 µM.
In the case of `CCc1ccc2oc(-c3cccc(NC(=O)c4ccc(-c5cccc([N+](=O)[O-])c5)o4)c3)nc2c1` [NCGC00102150-01], the AC50 [1] is reported as 15.2 µM.
Molecule `O=C(O)COc1ccc(-c2nccc(-c3cccs3)n2)cc1` [MLS000331320-01] has an AC50 [1] of 6.81 µM.
In the case of `Nc1nc(Nc2ccccc2)nc2ccccc12` [MLS000026767-01], the AC50 [1] is reported as 13.6 µM.
For `CC(C)(C)OC(=O)N1CCc2nc(C3CC3)nc(O)c2CC1` [NCGC00510066-01], the AC50 [3] was 8.94e-06 M, the AC50 ([4]; DD2, cytochrome b mutant line, fifth value triple, c15, […], read-out: log AC50, mean (converted)) was 2.99e-06 M and the AC50 ([5]; DD2, cytochrome b mutant line, third value triple, c9, […], read-out: log AC50, mean (converted)) was 8.93e-09 M.
For `CC1(C)Cc2nc3sc4c(SCC(=O)O)ncnc4c3cc2CO1` [MLS000778156-01], the AC50 [1] was 10.8 µM.
With `CCCN1C(CC(C)C)=N[S+](=O)([O-])c2cc(NC(=O)C3CC3)ccc21` [NCGC00510045-01] the AC50 [6] was 3.99e-06 M, the AC50 [7] was 4.32e-06 M and the “Individual replicates / Log AC50 (M)” value [8] was -5.2986 Log AC50 (M) and -5.4486 Log AC50 (M). It also gave an AC50 ([8]; read-out: Individual replicates / Log AC50 (converted)) of 3.99 µM, an AC50 [9] of 4.32e-06 M and an AC50 [3] of 1.22e-06 M. The AC50 ([4]; DD2, […], averaged from three independent replicates, top concentration 29 µM, read-out: Average AC50 (Log[M]), NCGC00473217 clone G08 (Cytb F123L) (converted)) was 1.12e-05 M, the AC50 ([5]; DD2, […], averaged from three independent replicates, top concentration 29 µM, read-out: Average AC50 (Log[M]), NCGC00473217 clone F06 (Cytb V259L) (converted)) was 3.05e-06 M and the “Individual replicates / Log AC50 (M)” value ([10]; 72 h) was -5.8486 Log AC50 (M). It also gave an AC50 ([10]; Plasmodium falciparum, DD2, 72 h, read-out: Individual replicates / Log AC50 (converted)) of 0.894 µM.
Molecule `Cc1cc(C(N)=NOC(=O)c2ccccc2Cl)no1` [MLS000833967-01] has an AC50 [1] of 13.6 µM.
`O=C1c2cnc(-c3cc4ccccc4o3)nc2OCCN1Cc1ccccc1` [NCGC00413600-01] showed an AC50 [1] of 11.1 µM.
`C/C(=N\OCc1cccc(C(=O)O)c1)c1ccc(Cl)cc1` [MLS000850591-01] gave an AC50 [1] of 0.0136 µM.
Work on `Cc1ccc(C)c(/N=N/c2nc3ccccc3n2C)c1` [MLS000577452-01] yielded an AC50 [1] of 12.1 µM, an AC50 [2] of 0.299 µM and a viability at 48 h, 1 µM (in vitro) of 95%. It also gave a viability at 48 h, 3 µM (in vitro) of 88%.
With `O=C(COc1ccc2ccccc2c1)Nc1nccs1` [MLS000718732-01] the AC50 [1] was 8.57 µM.
For `CCN(CC)CCN1C(=O)c2ccccc2NC1c1ccc(N(C)C)cc1` (stereo not shown) [MLS000554078-01], the AC50 [1] was 1.92 µM and the AC50 [2] was 4.22 µM.
`CCc1ccc(C2=CC(c3cccc(C)c3)n3c(nc4ccccc43)N2)cc1` (stereo not shown) [NCGC00140745-01] gave an AC50 [1] of 4.82 µM and an AC50 [2] of 15 µM.
Work on `Cc1ccoc1C(=O)Nc1ccc(CC(=O)O)cc1` [MLS000122814-01] yielded an AC50 [1] of 12.1 µM.
In the case of `COc1ccc(C(=O)C=CNc2cc(C)ccn2)cc1` [MLS001043227-01], the AC50 [1] is reported as 8.57 µM.
`NC(=NOC(=O)/C=C/c1ccc(Br)cc1)c1ccccn1` [MLS000680558-01] gave an AC50 [1] of 9.62 µM.
